Measured values taken from patent US7973064B2, “Method and composition for potentiating an opiate analgesic” (The Board of Trustees of the University of Illinois, priority 2001, dated 2011).
Entries after “also recorded” stand apart in the source; their conditions may differ. Square brackets hold non-standard residues; d marks the D form. Peptide text beside a SMILES is read from it.

What was measured:
[1] = tested on: streptozotocin-induced diabetic rat; conditions: cited from earlier work; for increase in tactile allodynia thresholds: systemic administration
[2] = tested on: mice rendered tolerant and dependent on morphine; assay: Morphine tolerance in mice; format: in vivo, mouse; conditions: FIGS. 6-8
Text: (§1) FIGS. 6-8 illustrate the ability of an endothelin antagonist to […] opiate analgesic tolerance in mice and rats rendered tolerant and dependent on morphine. The test method used to generate the data set forth in FIGS. 6-8 is disclosed in H. N. Bhargava et al., J. Pharmacol. Exp. Ther., 252(3), pp. 901-907 (1990). The method disclosed therein was modified slightly for mice because the smaller mice could not survive the morphine dose administered to the rats.

[3] = tested on: Male Sprague-Dawley rats; assay: Tail flick analgesia in rats; format: in vivo, rat; conditions: for effect on tail flick latency (analgesia), drug alone: morphine 8 mg/kg s.c. or BQ123 10 μg i.c.v.
Method: (§2) Male Sprague-Dawley rats weighing 225 to 250 g (Sasco King Animal Co., Madison, Wis.) were housed in a room with controlled temperature (23±1° C.), humidity (50±10%), and light (6:00 a.m. to 6:00 p.m.) for at least four days prior to testing. Food and water were available to the rats continuously.
(§3) The rats were divided into four groups (FIG. 1): group 1 received vehicle (saline 5 μl, i.c.v. over 5 minutes) and vehicle (saline 100 μl/kg s.c.); group 2 received vehicle (saline 100 μl/kg, s.c.) and BQ123 (10 μg, i.c.v. in a volume of 5 μl over 5 minutes); group 3 received morphine (8 mg/kg, s.c. in a volume of 100 μl/kg) and vehicle (saline 100 μl/kg, s.c.); and group 4 received morphine (8 mg/kg, s.c. in a volume of 100 μl/kg) and BQ123 (10 μg, i.c.v. in a volume of 5 μl over 5 minutes). Vehicle or BQ123 treatment was performed 30 minutes prior to morphine administration.
(§4) Measurement of analgesic effect: The analgesic response to morphine was determined by the tail flick method. The tail flick latencies to thermal stimulation were determined before and 30, 60, 90, 120, 180, 210, 240, 270, 300, and 360 minutes after the morphine injection. […] A cutoff time of 10 seconds was used to prevent damage to the tail. The basal latency was subtracted from that induced by morphine. […] The differences in analgesic response to different doses of morphine were compared by using student's t test. A value of P<0.05 was considered significant.

[4] = tested on: morphine tolerant mice; assay: Naloxone-precipitated morphine withdrawal in mice; format: in vivo, mouse; conditions: 1 morphine 75 mg pellet for 3 days, naloxone 1 mg/kg i.p., BQ123 3 μg i.c.v.
Method: (§5) The effect of BQ123 (3 μg, i.c.v.) on naloxone-precipitated morphine withdrawal also was determined in mice. […] Tests also were performed to determine tolerance to analgesic effect in morphine tolerant dependent rats (6 morphine pellets in 7-day period).

[5] = tested on: mice; assay: Tail flick analgesia in mice; format: in vivo, mouse; conditions: morphine 2, 4, and 8 mg/kg s.c.
Method: (§6) Tests also were performed on mice. The mice were housed and fed similar to the rats as described above taking into consideration the size differential between rats and mice. The mice were divided into groups identical to the rats, but administered different amounts of vehicle, opiate analgesic, and endothelin antagonist, as disclosed hereafter.
as §4

[6] = tested on: mice; conditions: BQ123 and morphine 2, 4, or 8 mg/kg
Method: as §6

[7] = tested on: morphine tolerant dependent rats; assay: Tolerance to analgesic effect in morphine tolerant dependent rats; format: in vivo, rat; conditions: 6 morphine pellets in 7-day period, BQ123 10 μg i.c.v. twice a day for 7 days
Method: as §1, §5

[8] = tested on: Male Sprague-Dawley rats; assay: Colonic temperature in rats; format: in vivo, rat; conditions: for effect on body temperature, drug alone: morphine 8 mg/kg s.c. or BQ123 10 μg i.c.v.
Method: as §2, §3
Measurement of colonic temperature: The change in temperature in response to morphine was determined. The colonic temperature of each rat was recorded before and various times after morphine injection for a period of 360 minutes using a tele-thermometer. […] Rats used to measure tail flick latencies also were used to determine the colonic temperature. The differences in temperature response between various groups were compared by using student's t test. A value of P<0.05 was considered significant.

[9] = tested on: Male Sprague-Dawley rats; assay: Catalepsy bar test in rats; format: in vivo, rat; conditions: for catalepsy (bar test), drug alone: 45 minutes after morphine or vehicle, morphine 8 mg/kg s.c. or BQ123 10 μg i.c.v.
Method: as §2, §3
Measurement of catalepsy: Rats were tested for catalepsy by the bar test. An aluminum bar 5 mm in diameter was placed 4 cm above the floor, and the animal's forepaw was gently placed on the bar. The time required for the animal to place at least one paw on the floor was measured with a maximum term of observation of 180 seconds. Behavioral evaluation of catalepsy was performed 45 minutes after the administration of morphine or its vehicle. Statistical tests were performed as described above.

[10] = Body weight in rats; format: in vivo, rat; conditions: before any drug and seven hours after morphine, BQ123 10 μg i.c.v., morphine 8 mg/kg s.c.
Method: as §3
Effect on body weight: Body weight was measured in all groups of rats of FIG. 1. […] Body weight was measured before administering any drug and at the end of the experiment, i.e., seven hours after the administration of morphine.

[11] = Body weight in mice given BQ123 and morphine; format: in vivo, mouse; conditions: BQ123 and morphine 2, 4, or 8 mg/kg
Method: Tests also were performed on mice.

[12] = tested on: rat sciatic nerve; conditions: ET-1 200 to 800 μM applied to sciatic nerve, pretreatment; cited from earlier work
[13] = tested on: Cr1:CD-1(ICR)BR mice and CXBK mice; conditions: ET-1 intraperitoneally, through μ1 sensitive pathway; cited from earlier work
[14] = BQ123 10 μg i.c.v. 30 minutes prior to morphine 8 mg/kg s.c.

## CCCCN(CCCC)C(=O)CN1C[C@H](c2ccc3c(c2)OCO3)[C@@H](C(=O)O)[C@@H]1c1ccc(OC)cc1 [ABT-627]
[1]; in drinking water for 7 days
  antinociceptive effect following chronic administration: maintained
[1]
  increase in tactile allodynia thresholds: 40 to 50%

## Cc1noc(NS(=O)(=O)c2cccc3c(N(C)C)cccc23)c1C [BMS182874]
[2]
  morphine tolerance after treatment with endothelin antagonist: reduced morphine tolerance

## CC(C)C[C@@H]1NC(=O)[C@@H](C(C)C)NC(=O)[C@@H]2CCCN2C(=O)[C@@H](CC(=O)O)NC(=O)[C@@H](Cc2c[nH]c3ccccc23)NC1=O [BQ123, cyclo(-D-Trp-D-Asp-Pro-D-Val-Leu-)] (cyclo(L[dW][dD]P[dV]))
[3]; [14]
  duration of morphine analgesia in BQ123 pretreated rats: more than six
  effect of BQ123 on analgesic effect of morphine: significantly potentiated
[3]
  effect on tail flick latency (analgesia), drug alone: did not produce any significant effect on tail flick latency
[2]
  morphine tolerance after treatment with endothelin antagonist: reduced morphine tolerance
[4]
  effect on naloxone-precipitated morphine withdrawal symptoms: did not affect hypothermia, loss of body weight, jumping behavior, falls, diarrhea, fecal boli, urination, ptosis, writhing, and rearing behavior during withdrawal; also recorded: no effect on temperature, body weight, urination, diarrhea, jumping behavior, number of falls, ptosis, and grooming
[5]; BQ123 3 μg i.c.v.
  duration of morphine analgesia with BQ123: more than 4 hours
  effect of BQ123 on morphine analgesia: significantly potentiated morphine analgesia; also recorded: analgesia was potentiated
[6]
  effect of BQ123 on morphine-induced hypothermia: not affected
[7]
  development of tolerance to morphine analgesic effect: did not become tolerant to morphine
[8]; [14]
  duration of morphine hyperthermia in BQ123 pretreated rats: more than six
  effect of BQ123 on hyperthermic effect of morphine: significantly potentiated
[8]
  effect on body temperature, drug alone: did not produce any significant effect on body temperature
[9]
  catalepsy (bar test), drug alone: did not produce any cataleptic effect
[9]; [14]
  effect of BQ123 pretreatment on morphine-induced catalepsy: did not produce any change in morphine-induced catalepsy
[10]
  change in body weight: no change in body weight
[11]
  effect on body weight: not affected
[12]
  effect on ET-1 induced hindpaw flinching: blocked

## CN1CC[C@]23c4c5ccc(O)c4O[C@H]2[C@@H](O)C=C[C@H]3[C@H]1C5 [morphine]
[3]; morphine 8 mg/kg s.c.
  time after administration until which tail flick latencies were significantly increased, morphine alone: three
[3]
  effect on tail flick latency (analgesia), drug alone: produced significant analgesia
[3]; morphine 8 mg/kg s.c., control about 2 seconds
  tail flick latency: more than 10 seconds
[13]
  effect on ET-1 induced nociception: could be blocked by morphine
[1]
  increase in tactile allodynia thresholds: 90%
[5]
  duration of increase in tail flick latency, morphine alone: 1.5 h
  effect on mouse tail flick latency, morphine alone: significant increase in mouse tail flick latency
[8]; morphine 8 mg/kg s.c.
  duration of hyperthermia, morphine alone: about four
[8]
  effect on body temperature, drug alone: produced significant hyperthermia
[9]
  catalepsy (bar test), drug alone: significantly increased catalepsy
[10]
  change in body weight: neither morphine nor BQ123 produced any acute effect on body weight
[12]
  effect on ET-1 induced hindpaw flinching: completely blocked
